Experimental data taken from US8414950B2, “High-purity rebaudioside D and low-calorie table top tablet containing the same” (PureCircle Sdn Bhd, priority 2009, dated 2013).
“Also recorded” adds a separate entry of the source. Where a SMILES comes first, the peptide text is derived from it.

Tests used:
[1] = cited from earlier work; for Sweetness power: standard sweetening power, saccharose = 1; for Relative sweetness: Table 2, relative to sucrose; for Sweetness potency, times higher than sucrose: related art
[2] = Table 2 and related-art text; cited from earlier work
[3] = Table 2; cited from earlier work
[4] = Solubility in organic solvents; format: physicochemical
From the text: Soluble in diluted solutions of methanol, ethanol, n-propanol, and isopropanol.
Insoluble in acetone, benzene, chloroform, and ether.

[5] = Quality of taste (sensory attributes)
From the text: Rebaudioside D is isolated and extracted, along with other steviol glycosides, from the Stevia rebaudiana Bertoni plant (“Stevia”), which is commercially cultivated in Japan, Taiwan, Malaysia, South Korea, China, Israel, India, Brazil, Australia, and Paraguay.

[6] = Sweetness power / relative sweetness compared with sucrose; details: high purity Rebaudioside D of the invention, compared to 10% sucrose solution
Heat and pH stability = format: physicochemical
Solubility in water = format: physicochemical; details: high purity Rebaudioside D of the invention; increases with temperature
From the text: Solubility in water is around 0.2% which is increasing with increase in temperature. It precipitates again upon cooling the solution. Highly soluble during chromatographic separation stage and before crystallizing.

Row | Molecule | Sweetness power [1] | Quality of taste [2] | Relative sweetness [1] | Solubility in water, % [3] [%] | also measured
1 | CC1=CC(=O)NS(=O)(=O)O1 [Acesulfame-K] | 200 | – | – | – | –
2 | C[C@@H](NC(=O)[C@@H](N)CC(=O)O)C(=O)NC1C(C)(C)SC1(C)C [Alitame] | 2000 | – | – | – | –
3 | COC(=O)[C@H](Cc1ccccc1)NC(=O)[C@@H](N)CC(=O)O [Aspartame] (H-Asp-Phe-OMe) | 200 | – | – | – | –
4 | C=C1C[C@@]23CC[C@H]4[C@@](C)(CCC[C@@]4(C)C(=O)O[C@@H]4O[C@H](CO)[C@@H](O)[C@H](O)[C@H]4O)[C@@H]2CC[C@]1(O[C@@H]1O[C@H](CO)[C@@H](O)[C@H](O)[C@H]1O[C@@H]1O[C@@H](C)[C@H](O)[C@@H](O)[C@H]1O)C3 [Dulcoside A] | – | Very bitter | 30 | 0.58 | Sweetness potency, times higher than sucrose [1]: around 30 times
5 | CC1(C)[C@@H](O[C@H]2O[C@H](C(=O)O)[C@@H](O)[C@H](O)[C@H]2O[C@@H]2O[C@H](C(=O)O)[C@@H](O)[C@H](O)[C@H]2O)CC[C@]2(C)[C@H]3C(=O)C=C4[C@@H]5C[C@@](C)(C(=O)O)CC[C@]5(C)CC[C@@]4(C)[C@]3(C)CC[C@@H]12 [Glycyrrhizin] | 50 | – | – | – | –
6 | COc1ccc(CCC(=O)c2c(O)cc(O[C@@H]3O[C@H](CO)[C@@H](O)[C@H](O)[C@H]3O[C@@H]3O[C@@H](C)[C@H](O)[C@@H](O)[C@H]3O)cc2O)cc1O [NHDC, neohesperidin dihydrochalcone] | 1000 | – | – | – | –
7 | C=C1C[C@@]23CC[C@H]4[C@@](C)(CCC[C@@]4(C)C(=O)O[C@@H]4O[C@H](CO)[C@@H](O)[C@H](O)[C@H]4O)[C@@H]2CC[C@]1(O[C@@H]1O[C@H](CO)[C@@H](O)[C@H](O[C@@H]2O[C@H](CO)[C@@H](O)[C@H](O)[C@H]2O)[C@H]1O[C@@H]1O[C@H](CO)[C@@H](O)[C@H](O)[C@H]1O)C3 [Rebaudioside A] | 450 | most favorable sensory attributes of the four major steviol glycosides; also recorded: Less Bitter | 200-400 | 0.80 | –
8 | C=C1C[C@@]23CC[C@H]4[C@@](C)(CCC[C@@]4(C)C(=O)O[C@@H]4O[C@H](CO)[C@@H](O)[C@H](O)[C@H]4O[C@@H]4O[C@H](CO)[C@@H](O)[C@H](O)[C@H]4O)[C@@H]2CC[C@]1(O[C@@H]1O[C@H](CO)[C@@H](O)[C@H](O[C@@H]2O[C@H](CO)[C@@H](O)[C@H](O)[C@H]2O)[C@H]1O[C@@H]1O[C@H](CO)[C@@H](O)[C@H](O)[C@H]1O)C3 [Rebaudioside D] | – | Like sucrose | 220 | 1.00 | Solubility in non-alcohol organic solvents ([4]; acetone, benzene, chloroform, and ether): Insoluble; Solubility in diluted alcohols ([4]; diluted solutions of methanol, ethanol, n-propanol, and isopropanol): Soluble; Bitterness and aftertaste / sensory properties ([5]; amongst the sweet diterpenoid glycosides of Stevia): the least bitter, and with the least persistent aftertaste; Bitterness and aftertaste / sensory properties ([5]; amongst the sweet diterpenoid glycosides of Stevia; listed as Rebaudioside 1)): excellent sensory properties; times sweeter than sugar [6]: 180-200 times; Heat and pH stability (Heat and pH stability): heat and pH-stable; Solubility in water (Solubility in water): around 0.2%
9 | C=C1C[C@@]23CC[C@H]4[C@@](C)(CCC[C@@]4(C)C(=O)O[C@@H]4O[C@H](CO)[C@@H](O)[C@H](O)[C@H]4O[C@@H]4O[C@H](CO)[C@@H](O)[C@H](O)[C@H]4O)[C@@H]2CC[C@]1(O[C@@H]1O[C@H](CO)[C@@H](O)[C@H](O)[C@H]1O[C@@H]1O[C@H](CO)[C@@H](O)[C@H](O)[C@H]1O)C3 [Rebaudioside E] | – | Like sucrose | 170 | 1.70 | –
10 | C=C1C[C@@]23CC[C@H]4[C@@](C)(CCC[C@@]4(C)C(=O)O[C@@H]4O[C@H](CO)[C@@H](O)[C@H](O)[C@H]4O)[C@@H]2CC[C@]1(O[C@@H]1O[C@H](CO)[C@@H](O)[C@H](O)[C@H]1O)C3 [Rubusoside] | – | Very bitter | 110 | – | –
11 | O=C1NS(=O)(=O)c2ccccc21 [Saccharine] | 300 | – | – | – | –
12 | OC[C@H]1O[C@@](CO)(O[C@H]2O[C@H](CO)[C@@H](O)[C@H](O)[C@H]2O)[C@@H](O)[C@@H]1O [Saccharose] | 1 | – | – | – | –
13 | C=C1C[C@@]23CC[C@H]4[C@@](C)(CCC[C@@]4(C)C(=O)O)[C@@H]2CC[C@]1(O)C3 [Steviol] | – | Very bitter | – | – | –
14 | C=C1C[C@@]23CC[C@H]4[C@@](C)(CCC[C@@]4(C)C(=O)O)[C@@H]2CC[C@]1(O[C@@H]1O[C@H](CO)[C@@H](O)[C@H](O)[C@H]1O[C@@H]1O[C@H](CO)[C@@H](O)[C@H](O)[C@H]1O)C3 [Steviolbioside] | – | Unpleasant | 90 | 0.03 | –
15 | C=C1C[C@@]23CC[C@H]4[C@@](C)(CCC[C@@]4(C)C(=O)O[C@@H]4O[C@H](CO)[C@@H](O)[C@H](O)[C@H]4O)[C@@H]2CC[C@]1(O[C@@H]1O[C@H](CO)[C@@H](O)[C@H](O)[C@H]1O[C@@H]1O[C@H](CO)[C@@H](O)[C@H](O)[C@H]1O)C3 [Stevioside] | 200 | Bitter | 210 | 0.13 | Sweetness potency, times higher than sucrose [1]: around 210 times
16 | OC[C@H]1O[C@H](O[C@]2(CCl)O[C@H](CCl)[C@@H](O)[C@@H]2O)[C@H](O)[C@@H](O)[C@H]1Cl [Sucralose] | 600 | – | – | – | –
17 | Rebaudioside B | – | Bitter | 150 | 0.10 | –
18 | Rebaudioside C | – | Bitter | 30 | 0.21 | Sweetness potency, times higher than sucrose [1]: around 30 times
19 | Thaumatin | 3000 | – | – | – | –
